This is an account of results in patent publication US11337449B2, “Compositions and their use” (NESTEC S.A., priority 2015, dated 2022).

For experiment [1], the system named is brain myelination (myelin water fraction). In words: Cross-sectional correlation of infant formula nutrient content with brain myelination (myelin water fraction, mcDESPOT MRI). The conditions noted are these: children up to 5 years fed infant formulas. Format: in vivo, human. On the procedure: MRI (Magnetic Resonance Imaging): MRI brain scans of infants and children between 0 and 5 years were acquired using a white matter imaging technique. This technique provides a quantitative measure, the Myelin Water Fraction (MWF), which is a surrogate marker of myelin content in the brain. When mapped as a function of time across early childhood, myelination trajectories can be generated.
Infant formula composition: six infant formulas fed to infants participating in a study were analyzed for their composition/level of myelin-relevant nutrients.
Each infant was scanned using the mcDESPOT (multicomponent Driven Equilibrium Single Pulse Observation of T1 and T2) white matter imaging technique Deoni et al. (Magn. Reson. Med. 2008, 60:1372-1387), which provides a quantitative measure of the myelin water fraction (MWF)—a measure of myelin content—at each point throughout the brain. All infants were scanned during natural (i.e. non-sedated) sleep using acoustically-muffled mcDESPOT imaging protocols. Total imaging times ranged from 19 minutes for the youngest toddlers to 24 minutes for the older 4 year-old children.
Following image alignment, non-brain signal removal, and correction for main and transmit magnetic field (B0 and B1) inhomogeneities, a three-pool signal model (comprising the myelin-associated water; intra-extra axonal water; and a non-exchanging free-water pool) was fit to the mcDESPOT data to derive voxel-wise MWF maps.
Each child's map was then non-linearly aligned to a study specific template. White matter masks, corresponding to 5 bilateral regions (frontal, temporal, occipital, parietal, and cerebellar WM) as well as the body, genu, and splenium of the corpus callosum were created from common databases, registered to the common template, and superimposed onto each child's MWF map. Mean values for each region were then determined for each child and used for subsequent developmental analysis and trajectory modeling.
From the cohort described above, children up to 5 years of age that were fed different infant formulas during infancy were included in a large correlation analysis to examine the relationship between formula nutrient composition and brain myelination. The 6 most frequently used formulas in that cohort were analyzed for their nutritional composition. A single general linear model (GLM) was constructed that modeled all quantified nutrients and child age.
Spearman rank correlations were then calculated between the nutrient content and myelin content value (adjusted for child age) at each image voxel, or point within the brain. Significance was defined as p<0.05 corrected for type 1 error using a cluster based correction approach. An association or trend was defined as p<0.15. […] To reduce the number of nutritional components in the model, we examined the inter-nutritional correlation. Using a conservative threshold of 0.9, we excluded nutritional components that were highly correlated with each other across the various formulas.

The test system of experiment [2] is neural progenitor cell (NPCs) from E14 mouse neocortex. In words: Differentiation assay: quantification of neuronal and glial marker expression in monolayer NPC culture. Format: cell-based. The following applies: 9 d culture; for astrocyte cell density (astrocytic): GFAP normalized to DAPI. On the procedure:
Generation of neural progenitor cell (NPCs) libraries: dissociation of E14 mouse neocortex E14 pup brains were harvested and placed in ice cold DPBS(1×)+10% Pen/Strep, then they were dissected using a dissecting microscope. From each pup, one brain hemisphere was placed in 2 ml of Neurobasal media/10% P/S/10× Hepes and another brain hemisphere was placed in another tube. The tissue from each tube was aseptically and manually dissociate into single cells, neurobasal complete medium was added and centrifuged at […] for 5 min. The tissue was then re-suspended in neurobasal complete media with GF and placed in a corning suspension culture dish 100 mm×20 mm (#430591). […] Plating Cells in 24 Well Plate for Monolayer Differentiation or EdU Incorporation Assays 24 well glass bottom plates (Mat Tek […]-1.0-13-F Case, glass bottom 24 well plates) were coated with poly-L-ornithin (Sigma P4957) and Fibronection (Sigma F1141) before use in the assay below. Cells were plated (10,000 cells per well) in Complete media with GF for 24 hours (500 ul per well). […] Differentiation Assay: Quantification of Neuronal, Glial and NPC Marker Expression After 24 hours, it was ensured that cells were attached to the plate, then the medium was carefully removed. […] Note: medium contains no GF. […] The cells were culture for 9 d in media plus 2% Nu Serum, the medium was changed every 2nd day. For fixation and subsequent immunohistochemical analysis the medium was removed, the cells were rinsed once with 1×PBS for 5 min, and fixed with 4% PFA in 1×PBS for 15 min at 4° C. The cells were then washed twice with 1×PBS for 5 min, left in 1×PBS, wrapped in foil and left overnight at 4C, or they were immediately primary antibody staining was carried out. PBS was removed and enough AB staining solution (1% Goat serum, 1×PBS, and 0.1% triton X) was added to cover the bottom, the block was kept at room temp for 1 hour. Primary antibody dilutions were made in appropriate amount of AB staining solution, 250 ul per well (the antibodies were only kept out on ice for a short time, mouse anti-MAP2 or TUJ1 1:500 (neuron marker), rabbit anti-GFAP (glial marker) 1:1000, chicken anti-Nestin CFP (EGFP antibody (progenitor cell marker)) 1:1000. AB staining solution was removed and a solution of primary antibodies was added to each chamber. The cells were wrapped in foil and kept overnight 4° C. The cells were then washed with 400 ul of AB staining solution for 5 min once to remove primary antibodies. Secondary antibody solutions were made (enough for 250 ul of each chamber) (Goat anti-mouse alexa 488 1:2000, anti-rabbit Cy3 (1:500), anti-chicken alexa 647 1:500, and 1:5000 Dapi). The cells were incubated at room temp for 1 hour in the dark and washed 2 time in AB staining solution for five mins. They were then kept at 4° C. or Imaged using a GE Cytell imager or LSM 710, Zeiss confocal microscope and analyze with ImageJ software (National Institutes of Health). Microtubule-Associated Protein 2 (MAP2), Neuronal Beta-Tubulin III(TuJ1), Glial Fibrillary Acidic Protein (GFAP), and Nestin CFP (EGFP Antibody). Each marker expression was measured on collected images (integrated density measure in ImageJ) and normalized to DAPI fluorescence, marking all nuclei (integrated density measure). Octanoic Acid were labeled with neuronal beta-tubulin III (TuJ1), subsequent compounds were labeled with Microtubule-associated protein 2 (MAP2).

`CCCCC/C=C\C/C=C\C/C=C\C/C=C\CCCC(=O)O` [AA, arachidonic acid]: the “association of nutrient with myelination (myelin water fraction) over time in the brain” value in experiment [1] is given as “an association with myelination (myelin water fraction) was observed over time in the brain”.

Take `CCCCCCCC(=O)O` [Octanoic acid, Octanoic Acid]: the “astrocyte cell density (astrocytic)” value was determined as 7.9 in experiment [2] (HighOA (Dose 3: 250 μM)), 3.7 in experiment [2] (lowOA (Dose 1: 10 μM)) and 6.1 in experiment [2] (medOA (Dose 2: 50 μM)). Further, the “Neuronal Cell density (Neuronal)” value in experiment [2] (HighOA (Dose 3: 250 μM), TuJ1 normalized to DAPI) was found to be 1.7; in experiment [2] (lowOA (Dose 1: 10 μM), TuJ1 normalized to DAPI) it was 1.2; in experiment [2] (medOA (Dose 2: 50 μM), TuJ1 normalized to DAPI), 1.8.

For the compound `CCCCCCCCCCCCCCCCCC(=O)O` [Stearic acid, Stearic Acid], the “astrocyte cell density (astrocytic)” value in experiment [2] (highSA (Dose 3: 10 μM)) came out at 0.85; in experiment [2] (lowSA (Dose 1: 100 nM)) it was 0.68; in experiment [2] (medSA (Dose 2: 1 μm)) it was 0.81. Moreover, the “Neuronal Cell density (Neuronal)” value in experiment [2] (highSA (Dose 3: 10 μM), MAP2 normalized to DAPI) is 0.64; in experiment [2] (lowSA (Dose 1: 100 nM), MAP2 normalized to DAPI), 0.54; in experiment [2] (medSA (Dose 2: 1 μm), MAP2 normalized to DAPI) it was 0.66.

In the case of `[Ca+2]` [calcium], the “association of nutrient with myelination (myelin water fraction) over time in the brain” value in experiment [1] was “an association with myelination (myelin water fraction) was observed over time in the brain”.

On to `[Mg+2]` [magnesium], for which the “association of nutrient with myelination (myelin water fraction) over time in the brain” value in experiment [1] was “an association with myelination (myelin water fraction) was observed over time in the brain”.

As for `[P]` [phosphorus], the “association of nutrient with myelination (myelin water fraction) over time in the brain” value in experiment [1] was “an association with myelination (myelin water fraction) was observed over time in the brain”.

Consider `[Zn]` [zinc], for which the “association of nutrient with myelination (myelin water fraction) over time in the brain” value in experiment [1] was “an association with myelination (myelin water fraction) was observed over time in the brain”.

iron: the “association of nutrient with myelination (myelin water fraction) over time in the brain” value in experiment [1] is “an association with myelination (myelin water fraction) was observed over time in the brain”.

In the case of phosphatidylcholine, the “association of nutrient with myelination (myelin water fraction) over time in the brain” value in experiment [1] is “an association with myelination (myelin water fraction) was observed over time in the brain”.

For phosphatidylinositol, the “association of nutrient with myelination (myelin water fraction) over time in the brain” value in experiment [1] was “an association with myelination (myelin water fraction) was observed over time in the brain”.

Take vitamin B12: the “association of nutrient with myelination (myelin water fraction) over time in the brain” value in experiment [1] is “an association with myelination (myelin water fraction) was observed over time in the brain”.
